Data as given in PMC4055736, “Functional Characterization of a Novel Family of Acetylcholine-Gated Chloride Channels in Schistosoma mansoni” (PLoS Pathogens, 2014).

What was measured:
Format in all cases: cell-based
SmACC-1 [1] = target: T1, SmACC-1 (Schistosoma mansoni, UniProt V5WAE7); experiment: YFP halide sensor iodide flux assay in transfected HEK-293 cells, […] agonist
T1 construct: gene ACC-1; full-length, human codon-optimized, C-terminal FLAG tag; homomeric channel
T1 sequence (V5WAE7 24-804): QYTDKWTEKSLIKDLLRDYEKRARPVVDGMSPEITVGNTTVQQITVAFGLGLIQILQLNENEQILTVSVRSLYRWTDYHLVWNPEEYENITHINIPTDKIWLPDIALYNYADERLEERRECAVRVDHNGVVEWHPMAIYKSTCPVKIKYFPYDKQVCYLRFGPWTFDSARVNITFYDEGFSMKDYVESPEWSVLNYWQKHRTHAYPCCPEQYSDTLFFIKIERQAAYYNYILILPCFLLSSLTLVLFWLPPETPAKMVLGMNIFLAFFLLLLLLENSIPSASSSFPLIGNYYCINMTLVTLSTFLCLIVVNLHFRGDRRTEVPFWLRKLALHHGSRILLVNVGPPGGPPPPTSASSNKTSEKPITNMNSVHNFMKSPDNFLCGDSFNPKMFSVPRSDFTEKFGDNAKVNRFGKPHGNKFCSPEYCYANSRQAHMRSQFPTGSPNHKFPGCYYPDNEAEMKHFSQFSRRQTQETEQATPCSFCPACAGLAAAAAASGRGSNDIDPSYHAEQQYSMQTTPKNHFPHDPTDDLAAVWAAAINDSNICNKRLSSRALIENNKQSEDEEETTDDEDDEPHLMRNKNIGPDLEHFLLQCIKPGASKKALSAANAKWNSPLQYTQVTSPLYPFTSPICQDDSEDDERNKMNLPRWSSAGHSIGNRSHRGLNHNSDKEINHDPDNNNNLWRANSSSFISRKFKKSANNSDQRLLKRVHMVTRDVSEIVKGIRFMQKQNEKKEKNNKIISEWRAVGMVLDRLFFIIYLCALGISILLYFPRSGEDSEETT

SmACC-1 [2] = target: T1, SmACC-1; experiment: YFP halide sensor iodide flux assay in transfected HEK-293 cells; block of […] nicotine response by […] antagonist
SmACC-1 [3] = target: T1, SmACC-1; experiment: YFP halide sensor iodide flux assay in transfected HEK-293 cells, dose response (agonist)

Compound	YFP halide sensor iodide flux assay in transfected HEK-293 cells, 100 μM agonist (SmACC-1 [1])	other results
C[N+](C)(C)CCOC(N)=O [carbachol]	statistically significant responses were also seen with other cholinergic agonists (ACh, choline chloride, carbachol and arecoline)	
C[N+](C)(C)CCO [choline]	statistically significant responses were also seen with other cholinergic agonists (ACh, choline chloride, carbachol and arecoline)	
COc1cc2c3cc1Oc1cc(ccc1O)C[C@@H]1c4c(cc(OC)c(O)c4Oc4ccc(cc4)C[C@@H]3N(C)CC2)CC[N+]1(C)C [D-tubocurarine]		YFP halide sensor iodide flux assay in transfected HEK-293 cells; block of 100 μ (SmACC-1 [2]): only D-tubocurarine was able to significantly block the activation of SmACC-1 by nicotine
COC(=O)C1=CCCN(C)C1 [arecoline]	statistically significant responses were also seen with other cholinergic agonists (ACh, choline chloride, carbachol and arecoline)	
CN1CCC[C@H]1c1cccnc1 [nicotine]		EC50 (SmACC-1 [3]): 4.3 ± 1.4 µM
